What was measured:
CHK2(R145W) = target: T1, CHK2(R145W) (Homo sapiens, UniProt O96017, R145W); test: Kinome profiler screen; format: biochemical; conditions: at 20,000 nM inhibitor; kinase activity remaining
T1 construct: purchased Millipore KinaseProfiler

PRK2 = target: T2, PRK2 (Homo sapiens, UniProt Q16513); test: Kinome profiler screen; format: biochemical; conditions: at 20,000 nM inhibitor; kinase activity remaining
T2 construct: purchased Millipore KinaseProfiler

LIMK1 = target: T3, LIMK1 (Homo sapiens, UniProt P53667); test: Kinome profiler screen; format: biochemical; conditions: at 20,000 nM inhibitor; kinase activity remaining
T3 construct: purchased Millipore KinaseProfiler

Plk1 = target: T4, Plk1 (Homo sapiens, UniProt P53350); test: Kinome profiler screen; format: biochemical; conditions: at 20,000 nM inhibitor; kinase activity remaining
T4 construct: purchased Millipore KinaseProfiler

PAK4 = target: T5, PAK4 (Homo sapiens, UniProt O96013); test: Kinome profiler screen; format: biochemical; conditions: at 20,000 nM inhibitor; kinase activity remaining
T5 construct: purchased Millipore KinaseProfiler

PKG1β = target: T6, PKG1β (Homo sapiens, UniProt Q13976); test: Kinome profiler screen; format: biochemical; conditions: at 20,000 nM inhibitor; kinase activity remaining
T6 construct: purchased Millipore KinaseProfiler

Arg(m) = target: T7, Arg(m) (Mus musculus, UniProt Q4JIM5); test: Kinome profiler screen; format: biochemical; conditions: at 20,000 nM inhibitor; kinase activity remaining
T7 construct: purchased Millipore KinaseProfiler

HIPK2 = target: T8, HIPK2 (Homo sapiens, UniProt Q9H2X6); test: Kinome profiler screen; format: biochemical; conditions: at 20,000 nM inhibitor; kinase activity remaining
T8 construct: purchased Millipore KinaseProfiler

PKCι = target: T9, PKCι (Homo sapiens, UniProt P41743); test: Kinome profiler screen; format: biochemical; conditions: at 20,000 nM inhibitor; kinase activity remaining
T9 construct: purchased Millipore KinaseProfiler

[1] = target: T10, PI3 Kinase (p110α/p85α)(m) (Mus musculus, UniProt P42337); test: Kinome profiler screen; format: biochemical; conditions: at 20,000 nM inhibitor; kinase activity remaining
T10 construct: purchased Millipore KinaseProfiler

EphA2 = target: T11, EphA2 (Homo sapiens, UniProt P29317); test: Kinome profiler screen; format: biochemical; conditions: at 20,000 nM inhibitor; kinase activity remaining
T11 construct: purchased Millipore KinaseProfiler

CDK7/cyclinH/MAT1 = target: T12, CDK7/cyclinH/MAT1 (Homo sapiens, UniProt P50613); test: Kinome profiler screen; format: biochemical; conditions: at 20,000 nM inhibitor; kinase activity remaining
T12 construct: purchased Millipore KinaseProfiler

TAO1 = target: T13, TAO1 (Homo sapiens, UniProt Q7L7X3); test: Kinome profiler screen; format: biochemical; conditions: at 20,000 nM inhibitor; kinase activity remaining
T13 construct: purchased Millipore KinaseProfiler

Blk(m) = target: T14, Blk(m) (Mus musculus, UniProt P16277); test: Kinome profiler screen; format: biochemical; conditions: at 20,000 nM inhibitor; kinase activity remaining
T14 construct: purchased Millipore KinaseProfiler

ULK2 = target: T15, ULK2 (Homo sapiens, UniProt Q8IYT8); test: Kinome profiler screen; format: biochemical; conditions: at 20,000 nM inhibitor; kinase activity remaining
T15 construct: purchased Millipore KinaseProfiler

PI3 Kinase (p110δ/p85α) = target: T16, PI3 Kinase (p110δ/p85α) (Homo sapiens, UniProt O00329); test: Kinome profiler screen; format: biochemical; conditions: at 20,000 nM inhibitor; kinase activity remaining
T16 construct: purchased Millipore KinaseProfiler

CDK2/cyclinE = target: T17, CDK2/cyclinE (Homo sapiens, UniProt P24941); test: Kinome profiler screen; format: biochemical; conditions: at 20,000 nM inhibitor; kinase activity remaining
T17 construct: purchased Millipore KinaseProfiler

SIK = target: T18, SIK (Homo sapiens, UniProt P57059); test: Kinome profiler screen; format: biochemical; conditions: at 20,000 nM inhibitor; kinase activity remaining
T18 construct: purchased Millipore KinaseProfiler

CaMKIIγ = target: T19, CaMKIIγ (Homo sapiens, UniProt Q13555); test: Kinome profiler screen; format: biochemical; conditions: at 20,000 nM inhibitor; kinase activity remaining
T19 construct: purchased Millipore KinaseProfiler

PRAK = target: T20, PRAK (Homo sapiens, UniProt Q8IW41); test: Kinome profiler screen; format: biochemical; conditions: at 20,000 nM inhibitor; kinase activity remaining
T20 construct: purchased Millipore KinaseProfiler

Abl(m) = target: T21, Abl(m) (Mus musculus, UniProt P00520); test: Kinome profiler screen; format: biochemical; conditions: at 20,000 nM inhibitor; kinase activity remaining
T21 construct: purchased Millipore KinaseProfiler

CDK1/cyclinB = target: T22, CDK1/cyclinB (Homo sapiens, UniProt P06493); test: Kinome profiler screen; format: biochemical; conditions: at 20,000 nM inhibitor; kinase activity remaining
T22 construct: purchased Millipore KinaseProfiler

PAK5 = target: T23, PAK5 (Homo sapiens, UniProt Q9P286); test: Kinome profiler screen; format: biochemical; conditions: at 20,000 nM inhibitor; kinase activity remaining
T23 construct: purchased Millipore KinaseProfiler

WNK3 = target: T24, WNK3 (Homo sapiens, UniProt Q9BYP7); test: Kinome profiler screen; format: biochemical; conditions: at 20,000 nM inhibitor; kinase activity remaining
T24 construct: purchased Millipore KinaseProfiler

cKit = target: T25, cKit (Homo sapiens, UniProt P10721); test: Kinome profiler screen; format: biochemical; conditions: at 20,000 nM inhibitor; kinase activity remaining
T25 construct: purchased Millipore KinaseProfiler

GRK5 = target: T26, GRK5 (Homo sapiens, UniProt P34947); test: Kinome profiler screen; format: biochemical
T26 construct: purchased Millipore KinaseProfiler

cSRC = target: T27, cSRC (Homo sapiens, UniProt P12931); test: Kinome profiler screen; format: biochemical; conditions: at 20,000 nM inhibitor; kinase activity remaining
T27 construct: purchased Millipore KinaseProfiler

reference memory = test: 2-day radial arm water maze (RAWM), Aβ42-infused mice; format: in vivo, C57BL/6J mice; conditions: 5 mg/Kg i.p.
CaMKIV = target: T28, CaMKIV (Homo sapiens, UniProt Q16566); test: Kinome profiler screen; format: biochemical; conditions: at 20,000 nM inhibitor; kinase activity remaining
T28 construct: purchased Millipore KinaseProfiler

EphB1 = target: T29, EphB1 (Homo sapiens, UniProt P54762); test: Kinome profiler screen; format: biochemical
T29 construct: purchased Millipore KinaseProfiler

PDGFRβ = target: T30, PDGFRβ (Homo sapiens, UniProt P09619); test: Kinome profiler screen; format: biochemical; conditions: at 20,000 nM inhibitor; kinase activity remaining
T30 construct: purchased Millipore KinaseProfiler

NEK11 = target: T31, NEK11 (Homo sapiens, UniProt Q8NG66); test: Kinome profiler screen; format: biochemical; conditions: at 20,000 nM inhibitor; kinase activity remaining
T31 construct: purchased Millipore KinaseProfiler

Met(D1246N) = target: T32, Met(D1246N) (Homo sapiens, UniProt P08581, D1228N); test: Kinome profiler screen; format: biochemical; conditions: at 20,000 nM inhibitor; kinase activity remaining
T32 construct: purchased Millipore KinaseProfiler

IR, activated = target: T33, IR, activated (Homo sapiens, UniProt P06213); test: Kinome profiler screen; format: biochemical; conditions: at 20,000 nM inhibitor; kinase activity remaining
T33 construct: purchased Millipore KinaseProfiler

SGK2 = target: T34, SGK2 (Homo sapiens, UniProt Q9HBY8); test: Kinome profiler screen; format: biochemical; conditions: at 20,000 nM inhibitor; kinase activity remaining
T34 construct: purchased Millipore KinaseProfiler

CDK5/p35 = target: T35, CDK5/p35 (Homo sapiens, UniProt Q00535); test: Kinome profiler screen; format: biochemical; conditions: at 20,000 nM inhibitor; kinase activity remaining
T35 construct: purchased Millipore KinaseProfiler

PAK6 = target: T36, PAK6 (Homo sapiens, UniProt Q9NQU5); test: Kinome profiler screen; format: biochemical; conditions: at 20,000 nM inhibitor; kinase activity remaining
T36 construct: purchased Millipore KinaseProfiler

PKG1α = target: T37, PKG1α (Homo sapiens, UniProt Q13976); test: Kinome profiler screen; format: biochemical; conditions: at 20,000 nM inhibitor; kinase activity remaining
T37 construct: purchased Millipore KinaseProfiler

ASK1 = target: T38, ASK1 (Homo sapiens, UniProt Q99683); test: Kinome profiler screen; format: biochemical; conditions: at 20,000 nM inhibitor; kinase activity remaining
T38 construct: purchased Millipore KinaseProfiler

CHK1 = target: T39, CHK1 (Homo sapiens, UniProt O14757); test: Kinome profiler screen; format: biochemical; conditions: at 20,000 nM inhibitor; kinase activity remaining
T39 construct: purchased Millipore KinaseProfiler

Rse = target: T40, Rse (Homo sapiens, UniProt Q06418); test: Kinome profiler screen; format: biochemical; conditions: at 20,000 nM inhibitor; kinase activity remaining
T40 construct: purchased Millipore KinaseProfiler

AMPKα1 = target: T41, AMPKα1 (Homo sapiens, UniProt Q13131); test: Kinome profiler screen; format: biochemical; conditions: at 20,000 nM inhibitor; kinase activity remaining
T41 construct: purchased Millipore KinaseProfiler

TSSK1 = target: T42, TSSK1 (Homo sapiens, UniProt Q9BXA7); test: Kinome profiler screen; format: biochemical; conditions: at 20,000 nM inhibitor; kinase activity remaining
T42 construct: purchased Millipore KinaseProfiler

PKCμ = target: T43, PKCμ (Homo sapiens, UniProt Q15139); test: Kinome profiler screen; format: biochemical; conditions: at 20,000 nM inhibitor; kinase activity remaining
T43 construct: purchased Millipore KinaseProfiler

T10 sequence (P42337 whole entry): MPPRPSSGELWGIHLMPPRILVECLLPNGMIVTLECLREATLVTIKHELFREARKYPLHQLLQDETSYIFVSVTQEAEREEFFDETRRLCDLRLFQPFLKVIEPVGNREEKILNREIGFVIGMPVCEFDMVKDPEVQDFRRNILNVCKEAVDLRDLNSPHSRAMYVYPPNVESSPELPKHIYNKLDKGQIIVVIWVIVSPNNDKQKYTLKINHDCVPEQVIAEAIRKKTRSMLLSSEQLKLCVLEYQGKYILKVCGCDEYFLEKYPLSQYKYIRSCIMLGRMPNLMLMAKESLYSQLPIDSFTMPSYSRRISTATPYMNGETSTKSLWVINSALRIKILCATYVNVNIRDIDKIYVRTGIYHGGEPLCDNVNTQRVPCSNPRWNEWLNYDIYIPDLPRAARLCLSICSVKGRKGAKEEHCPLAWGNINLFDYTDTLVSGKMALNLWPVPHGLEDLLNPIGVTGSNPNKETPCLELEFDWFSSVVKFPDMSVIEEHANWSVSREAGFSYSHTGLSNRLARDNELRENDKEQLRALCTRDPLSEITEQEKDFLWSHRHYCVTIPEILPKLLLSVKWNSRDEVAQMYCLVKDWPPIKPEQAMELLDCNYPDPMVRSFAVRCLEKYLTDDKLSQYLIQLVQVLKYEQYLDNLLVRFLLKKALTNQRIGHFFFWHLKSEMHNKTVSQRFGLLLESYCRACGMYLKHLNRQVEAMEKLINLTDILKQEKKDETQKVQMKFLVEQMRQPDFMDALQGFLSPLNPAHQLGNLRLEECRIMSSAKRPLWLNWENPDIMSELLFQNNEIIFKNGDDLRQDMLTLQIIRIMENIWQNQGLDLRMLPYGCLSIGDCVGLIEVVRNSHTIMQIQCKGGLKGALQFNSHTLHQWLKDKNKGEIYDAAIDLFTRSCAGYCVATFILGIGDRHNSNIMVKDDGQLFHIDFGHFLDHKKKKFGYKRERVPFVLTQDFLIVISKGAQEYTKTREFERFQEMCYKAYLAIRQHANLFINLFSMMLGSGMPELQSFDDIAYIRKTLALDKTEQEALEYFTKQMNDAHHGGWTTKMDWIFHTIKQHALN
T10 sequence (P26450 2-724 partner): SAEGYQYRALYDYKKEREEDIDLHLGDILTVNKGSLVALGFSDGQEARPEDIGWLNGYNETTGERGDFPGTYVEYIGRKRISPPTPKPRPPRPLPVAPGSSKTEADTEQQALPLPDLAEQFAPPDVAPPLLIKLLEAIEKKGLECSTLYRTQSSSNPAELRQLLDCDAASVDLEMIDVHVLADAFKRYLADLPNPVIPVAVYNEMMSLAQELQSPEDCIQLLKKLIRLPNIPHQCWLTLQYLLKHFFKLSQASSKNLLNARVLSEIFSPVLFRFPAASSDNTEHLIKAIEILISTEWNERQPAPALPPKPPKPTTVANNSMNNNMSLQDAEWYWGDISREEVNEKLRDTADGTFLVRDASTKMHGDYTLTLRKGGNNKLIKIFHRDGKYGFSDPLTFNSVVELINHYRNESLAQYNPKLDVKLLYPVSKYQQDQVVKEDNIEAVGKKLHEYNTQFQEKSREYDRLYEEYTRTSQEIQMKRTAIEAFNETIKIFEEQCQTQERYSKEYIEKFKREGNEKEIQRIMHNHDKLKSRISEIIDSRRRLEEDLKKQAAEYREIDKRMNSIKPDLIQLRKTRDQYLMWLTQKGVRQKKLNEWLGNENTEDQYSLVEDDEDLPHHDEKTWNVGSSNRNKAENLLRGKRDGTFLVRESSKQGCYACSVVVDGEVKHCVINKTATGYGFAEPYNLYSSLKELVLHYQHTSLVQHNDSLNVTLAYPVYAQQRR
T28 sequence (Q16566 whole entry): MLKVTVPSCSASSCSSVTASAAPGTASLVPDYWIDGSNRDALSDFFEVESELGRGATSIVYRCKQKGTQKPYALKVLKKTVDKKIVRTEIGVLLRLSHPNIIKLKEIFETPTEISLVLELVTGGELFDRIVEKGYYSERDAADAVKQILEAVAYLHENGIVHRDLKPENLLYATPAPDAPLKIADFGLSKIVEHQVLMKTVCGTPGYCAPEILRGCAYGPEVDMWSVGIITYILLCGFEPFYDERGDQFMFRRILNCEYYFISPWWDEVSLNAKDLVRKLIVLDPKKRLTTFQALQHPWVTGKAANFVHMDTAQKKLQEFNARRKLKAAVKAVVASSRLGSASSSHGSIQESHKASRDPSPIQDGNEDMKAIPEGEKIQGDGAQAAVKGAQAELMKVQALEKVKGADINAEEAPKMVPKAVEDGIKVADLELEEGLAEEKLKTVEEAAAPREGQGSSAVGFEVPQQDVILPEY
T5 sequence (O96013 whole entry): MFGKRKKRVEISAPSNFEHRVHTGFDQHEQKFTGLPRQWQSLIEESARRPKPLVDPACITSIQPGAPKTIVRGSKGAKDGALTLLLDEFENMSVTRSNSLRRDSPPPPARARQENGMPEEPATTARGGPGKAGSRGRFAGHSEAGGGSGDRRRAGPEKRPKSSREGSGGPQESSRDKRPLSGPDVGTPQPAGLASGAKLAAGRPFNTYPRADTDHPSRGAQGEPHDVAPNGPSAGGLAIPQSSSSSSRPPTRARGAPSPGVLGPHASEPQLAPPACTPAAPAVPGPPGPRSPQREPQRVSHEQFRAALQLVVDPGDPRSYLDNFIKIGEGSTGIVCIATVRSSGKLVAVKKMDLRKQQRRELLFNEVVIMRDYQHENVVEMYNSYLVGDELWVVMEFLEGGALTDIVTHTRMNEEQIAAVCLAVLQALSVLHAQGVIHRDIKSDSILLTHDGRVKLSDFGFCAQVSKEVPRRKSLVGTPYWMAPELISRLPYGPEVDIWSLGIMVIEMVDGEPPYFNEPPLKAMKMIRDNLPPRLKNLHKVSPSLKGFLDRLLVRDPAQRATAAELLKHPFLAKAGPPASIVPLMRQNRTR
T24 sequence (Q9BYP7 whole entry): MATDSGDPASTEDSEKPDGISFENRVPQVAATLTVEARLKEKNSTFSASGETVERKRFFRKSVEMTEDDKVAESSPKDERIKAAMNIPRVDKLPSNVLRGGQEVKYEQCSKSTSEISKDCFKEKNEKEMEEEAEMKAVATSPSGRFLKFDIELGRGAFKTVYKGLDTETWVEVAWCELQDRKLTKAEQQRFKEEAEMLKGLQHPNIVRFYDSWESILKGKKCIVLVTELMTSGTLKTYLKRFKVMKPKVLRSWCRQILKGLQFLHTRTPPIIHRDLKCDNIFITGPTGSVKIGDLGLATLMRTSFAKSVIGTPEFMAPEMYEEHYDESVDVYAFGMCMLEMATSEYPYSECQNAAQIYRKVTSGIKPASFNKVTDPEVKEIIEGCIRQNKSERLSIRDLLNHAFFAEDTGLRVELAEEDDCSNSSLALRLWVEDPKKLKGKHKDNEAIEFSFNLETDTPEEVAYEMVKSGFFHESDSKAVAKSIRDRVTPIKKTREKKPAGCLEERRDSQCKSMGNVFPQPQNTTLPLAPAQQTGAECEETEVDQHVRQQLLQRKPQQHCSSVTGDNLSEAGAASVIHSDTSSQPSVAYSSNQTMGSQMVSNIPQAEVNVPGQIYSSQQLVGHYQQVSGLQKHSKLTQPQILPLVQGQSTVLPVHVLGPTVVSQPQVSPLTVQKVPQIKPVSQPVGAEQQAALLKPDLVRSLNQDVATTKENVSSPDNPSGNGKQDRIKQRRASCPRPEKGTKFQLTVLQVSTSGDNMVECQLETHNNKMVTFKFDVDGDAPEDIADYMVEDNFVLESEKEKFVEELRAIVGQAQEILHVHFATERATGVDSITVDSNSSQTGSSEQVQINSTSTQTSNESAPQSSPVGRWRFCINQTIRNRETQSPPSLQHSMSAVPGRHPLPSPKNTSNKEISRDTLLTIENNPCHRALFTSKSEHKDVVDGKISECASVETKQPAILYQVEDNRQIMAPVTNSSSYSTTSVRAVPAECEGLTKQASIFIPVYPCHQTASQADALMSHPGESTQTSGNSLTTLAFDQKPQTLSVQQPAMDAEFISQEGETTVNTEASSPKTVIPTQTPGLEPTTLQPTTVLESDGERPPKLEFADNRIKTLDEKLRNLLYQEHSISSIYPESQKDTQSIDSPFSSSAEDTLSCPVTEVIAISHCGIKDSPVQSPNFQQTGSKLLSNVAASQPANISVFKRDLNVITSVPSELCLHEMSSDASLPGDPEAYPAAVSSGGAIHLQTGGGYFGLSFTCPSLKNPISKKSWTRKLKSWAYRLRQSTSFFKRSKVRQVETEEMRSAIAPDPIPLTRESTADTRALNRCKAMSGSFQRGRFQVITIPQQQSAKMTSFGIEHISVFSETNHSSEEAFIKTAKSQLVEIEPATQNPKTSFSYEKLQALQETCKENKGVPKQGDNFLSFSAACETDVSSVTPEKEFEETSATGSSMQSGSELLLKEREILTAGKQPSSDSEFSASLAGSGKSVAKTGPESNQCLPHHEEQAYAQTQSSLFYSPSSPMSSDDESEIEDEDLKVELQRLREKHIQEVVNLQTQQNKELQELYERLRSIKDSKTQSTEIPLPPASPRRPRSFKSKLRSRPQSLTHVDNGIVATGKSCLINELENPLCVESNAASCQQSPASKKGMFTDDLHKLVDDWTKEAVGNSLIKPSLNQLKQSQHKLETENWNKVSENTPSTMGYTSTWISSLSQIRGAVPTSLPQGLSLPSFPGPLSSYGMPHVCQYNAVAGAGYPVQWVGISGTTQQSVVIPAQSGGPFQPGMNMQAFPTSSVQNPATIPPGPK
T34 sequence (Q9HBY8 whole entry): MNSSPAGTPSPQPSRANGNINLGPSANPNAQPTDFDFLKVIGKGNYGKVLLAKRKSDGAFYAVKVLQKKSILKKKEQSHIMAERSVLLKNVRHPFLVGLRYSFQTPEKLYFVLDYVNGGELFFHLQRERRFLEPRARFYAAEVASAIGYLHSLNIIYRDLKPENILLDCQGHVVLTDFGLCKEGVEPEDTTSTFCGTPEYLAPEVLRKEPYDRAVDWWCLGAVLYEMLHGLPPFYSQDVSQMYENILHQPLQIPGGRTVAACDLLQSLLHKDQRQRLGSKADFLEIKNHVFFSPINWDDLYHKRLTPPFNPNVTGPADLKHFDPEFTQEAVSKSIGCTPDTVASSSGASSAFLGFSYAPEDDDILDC

SMILES: CN(C)c1cc(-c2ccncc2)c(-c2ccc3ccccc3c2)nn1 [MW108, N, N-dimethyl-6-(naphthalen-2-yl)-5-(pyridin-4-yl)pyridazin-3-amine]
- activity at 20 µM (CHK2(R145W)): 97%
- activity at 20 µM (PRK2): 103%
- activity at 20 µM (LIMK1): 106%
- activity at 20 µM (Plk1): 96%
- activity at 20 µM (PAK4): 104%
- activity at 20 µM (PKG1β): 96%
- activity at 20 µM (Arg(m)): 86%
- activity at 20 µM (HIPK2): 107%
- activity at 20 µM (PKCι): 92%
- activity at 20 µM [1]: 101%
- activity at 20 µM (EphA2): 83%
- activity at 20 µM (CDK7/cyclinH/MAT1): 98%
- activity at 20 µM (TAO1): 92%
- activity at 20 µM (Blk(m)): 88%
- activity at 20 µM (ULK2): 100%
- activity at 20 µM (PI3 Kinase (p110δ/p85α)): 100%
- activity at 20 µM (CDK2/cyclinE): 108%
- activity at 20 µM (SIK): 91%
- activity at 20 µM (CaMKIIγ): 99%
- activity at 20 µM (PRAK): 94%
- activity at 20 µM (Abl(m)): 89%
- activity at 20 µM (CDK1/cyclinB): 90%
- activity at 20 µM (PAK5): 102%
- activity at 20 µM (WNK3): 91%
- activity at 20 µM (cKit): 104%
- activity at 20 µM (GRK5): 110%
- activity at 20 µM (cSRC): 125%
- reference memory deficit, RAWM (reference memory): ameliorated the reference memory deficit
- activity at 20 µM (CaMKIV): 100%
- activity at 20 µM (EphB1): 92%
- activity at 20 µM (PDGFRβ): 99%
- activity at 20 µM (NEK11): 108%
- activity at 20 µM (Met(D1246N)): 80%
- activity at 20 µM (IR, activated): 103%
- activity at 20 µM (SGK2): 92%
- activity at 20 µM (CDK5/p35): 99%
- activity at 20 µM (PAK6): 99%
- activity at 20 µM (PKG1α): 93%
- activity at 20 µM (ASK1): 103%
- activity at 20 µM (CHK1): 94%
- activity at 20 µM (Rse): 117%
- activity at 20 µM (AMPKα1): 101%
- activity at 20 µM (TSSK1): 101%
- activity at 20 µM (PKCμ): 70%

Reference: publication PMC3694096, “Development of Novel In Vivo Chemical Probes to Address CNS Protein Kinase Involvement in Synaptic Dysfunction” (PLoS ONE, 2013)
